Reference: patent US4517359A, “11-Methyl-11-aza-4-0-cladinosyl-6-0-desosaminyl-15-ethyl-7,1 3,14-trihydroxy-3,5,7,9,12,14-hexamethyl-oxacyclopentadecane-2-one and derivatives thereof” (Sour Pliva farmaceutska, kemijska prehrambena i kozmeticka …, priority 1981, dated 1985)
Values after ≈ are worked out from the molar mass of the structure shown. Like-named read-outs stand apart in the source and are kept apart here.

Experiments:
bacteria = settings: versus erythromycin A (U.S. Pat. No. 3,417,077; Rocz. Chem. 46, 2212-2217, 1972); cited from earlier work
[1] = system: Staphylococcus epidermidis ATCC 12228; assay: Minimum Inhibitory Concentration (MIC), in vitro; type: cell-based
[2] = system: Staphylococcus aureus ATCC 6538-P; assay: Minimum Inhibitory Concentration (MIC), in vitro; type: cell-based
[3] = system: Micrococcus flavus ATCC 10240; assay: Minimum Inhibitory Concentration (MIC), in vitro; type: cell-based
[4] = system: Bacillus cereus var. mycoides ATCC 11778; assay: microbe, parasite or virus in culture; type: cell-based; settings: ATCC11778, read-out: Minimum Inhibitory Concentration (MIC)
[5] = system: Bacillus subtilis ATCC 6633; assay: Minimum Inhibitory Concentration (MIC), in vitro; type: cell-based
[6] = system: Streptococcus faecalis ATCC 8043; assay: Minimum Inhibitory Concentration (MIC), in vitro; type: cell-based; settings: Enterococcus faecalis
Sarcina lutea ATCC 9341 = assay: Minimum Inhibitory Concentration (MIC), in vitro; type: cell-based; settings: Micrococcus luteus
[7] = system: series of test microorganisms; assay: in vitro test on a series of test microorganisms (MIC), overall; type: cell-based; settings: test strains of Tables 1 and 2; in comparison with starting 11-aza-10-deoxo-10-dihydro erythromycin A
Method: The new compounds were tested in vitro on a series of test microorganisms.

[8] = ATCC12228, Staphylococcus epidermidis ATCC 12228, in vitro, read-out: Minimum Inhibitory Concentration (MIC)
[9] = ATCC6538, Staphylococcus aureus ATCC 6538-P, in vitro, read-out: Minimum Inhibitory Concentration (MIC)
[10] = ATCC10240, Micrococcus flavus ATCC 10240, in vitro, read-out: Minimum Inhibitory Concentration (MIC)
[11] = ATCC6633, Bacillus subtilis ATCC 6633, in vitro, read-out: Minimum Inhibitory Concentration (MIC)
[12] = ATCC8043, Streptococcus faecalis ATCC 8043, in vitro, read-out: Minimum Inhibitory Concentration (MIC)
[13] = ATCC9341, Sarcina lutea ATCC 9341, in vitro, read-out: Minimum Inhibitory Concentration (MIC)

Row | Compound | antibacterial activity compared with the starting antibiotic (bacteria) | MIC [1, 8] | MIC [2, 9] | MIC [3, 10] | MIC [4] | MIC [5, 11] | MIC [6, 12] | MIC (Sarcina lutea ATCC 9341; [13]) | MIC ([1]; Staphylococcus epidermidis, ATCC12228, read-out: Minimum Inhibitory Concentration (MIC)) | MIC ([2]; Staphylococcus aureus, ATCC6538, read-out: Minimum Inhibitory Concentration (MIC)) | MIC ([3]; Micrococcus flavus, ATCC10240, read-out: Minimum Inhibitory Concentration (MIC)) | MIC ([5]; Bacillus subtilis, ATCC6633, read-out: Minimum Inhibitory Concentration (MIC)) | MIC ([6]; ATCC8043, read-out: Minimum Inhibitory Concentration (MIC)) | MIC (Sarcina lutea ATCC 9341; ATCC9341, read-out: Minimum Inhibitory Concentration (MIC)) | antibacterial activity in words [7]
1 | CC[C@H]1OC(=O)[C@H](C)[C@@H](O[C@H]2C[C@@](C)(OC)[C@@H](O)[C@H](C)O2)[C@H](C)[C@@H](O[C@@H]2O[C@H](C)C[C@H](N(C)C)[C@H]2O)[C@](C)(O)C[C@@H](C)C(=O)[C@H](C)[C@H]2OC(=O)O[C@@]21C [11,12-cyclic carbonate of erythromycin A] | improved antibacterial activity | – | – | – | – | – | – | – | – | – | – | – | – | – | –
2 | CCC(=O)O[C@H]1[C@H](O[C@@H]2[C@@H](C)[C@H](O[C@H]3C[C@@](C)(OC)[C@@H](O)[C@H](C)O3)[C@@H](C)C(=O)O[C@H](CC)[C@@](C)(O)[C@H](O)[C@@H](C)N(C)C[C@H](C)C[C@@]2(C)O)O[C@H](C)C[C@@H]1N(C)C [Example 5, 2'-propionyl-N-methyl-11-aza-10-dihydro erythromycin A] | – | 0.05 µg/mL (≈ 0.0621 µM) | 0.1 µg/mL (≈ 0.124 µM) | 0.05 µg/mL (≈ 0.0621 µM) | 0.5 µg/mL (≈ 0.621 µM) | 0.5 µg/mL (≈ 0.621 µM) | 0.05 µg/mL (≈ 0.0621 µM) | 0.05 µg/mL (≈ 0.0621 µM) | – | – | – | – | – | – | –
3 | CC[C@H]1OC(=O)[C@H](C)[C@@H](O[C@H]2C[C@@](C)(OC)[C@@H](OC(C)=O)[C@H](C)O2)[C@H](C)[C@@H](O[C@@H]2O[C@H](C)C[C@H](N(C)C)[C@H]2OC(C)=O)[C@](C)(O)C[C@@H](C)CN(C)[C@H](C)[C@H]2OC(=O)O[C@@]21C [Example 9, 2',4"-diacetyl-N-methyl-11-aza-10-deoxo-10-dihydro erythromycin A 13,14-cyclic carbonate] | – | 2.5 µg/mL (≈ 2.91 µM) | 2.5 µg/mL (≈ 2.91 µM) | 1 µg/mL (≈ 1.16 µM) | 2.5 µg/mL (≈ 2.91 µM) | 2.5 µg/mL (≈ 2.91 µM) | 0.5 µg/mL (≈ 0.582 µM) | 0.1 µg/mL (≈ 0.116 µM) | – | – | – | – | – | – | –
4 | CCC(=O)O[C@H]1[C@H](O[C@@H]2[C@@H](C)[C@H](O[C@H]3C[C@@](C)(OC)[C@@H](OC(=O)CC)[C@H](C)O3)[C@@H](C)C(=O)O[C@H](CC)[C@@]3(C)OC(=O)O[C@@H]3[C@@H](C)N(C)C[C@H](C)C[C@@]2(C)O)O[C@H](C)C[C@@H]1N(C)C [Example 11, 2',4"-dipropionyl-N-methyl-11-aza-10-deoxo-10-dihydro erythromycin A 13,14-cyclic carbonate] | – | 2.5 µg/mL (≈ 2.82 µM) | 2.5 µg/mL (≈ 2.82 µM) | 0.5 µg/mL (≈ 0.564 µM) | 1 µg/mL (≈ 1.13 µM) | 1 µg/mL (≈ 1.13 µM) | 0.1 µg/mL (≈ 0.113 µM) | 0.05 µg/mL (≈ 0.0564 µM) | – | – | – | – | – | – | –
5 | CC[C@H]1OC(=O)[C@H](C)[C@@H](O[C@H]2C[C@@](C)(OC)[C@@H](O)[C@H](C)O2)[C@H](C)[C@@H](O[C@@H]2O[C@H](C)C[C@H](N(C)C)[C@H]2OC(C)=O)[C@](C)(O)C[C@@H](C)CN(C)[C@H](C)[C@@H](O)[C@]1(C)O [Example 2, 2'-acetyl-N-methyl-11-aza-10-deoxo-10-dihydro erythromycin A] | – | – | – | – | 0.5 µg/mL (≈ 0.632 µM) | – | – | – | 0.5 µg/mL (≈ 0.632 µM) | 0.5 µg/mL (≈ 0.632 µM) | 0.5 µg/mL (≈ 0.632 µM) | 0.1 µg/mL (≈ 0.126 µM) | 0.1 µg/mL (≈ 0.126 µM) | 0.1 µg/mL (≈ 0.126 µM) | –
6 | CCC(=O)O[C@H]1[C@H](O[C@@H]2[C@@H](C)[C@H](O[C@H]3C[C@@](C)(OC)[C@@H](OC(=O)CC)[C@H](C)O3)[C@@H](C)C(=O)O[C@H](CC)[C@@](C)(O)[C@H](O)[C@@H](C)N(C)C[C@H](C)C[C@@]2(C)O)O[C@H](C)C[C@@H]1N(C)C [Example 6, 2',4"-dipropionyl-N-methyl-11-aza-10-deoxo-10-dihydro erythromycin] | – | 0.1 µg/mL (≈ 0.116 µM) | 0.5 µg/mL (≈ 0.581 µM) | 0.5 µg/mL (≈ 0.581 µM) | 0.5 µg/mL (≈ 0.581 µM) | 0.1 µg/mL (≈ 0.116 µM) | 0.1 µg/mL (≈ 0.116 µM) | 0.05 µg/mL (≈ 0.0581 µM) | – | – | – | – | – | – | –
7 | CC[C@H]1OC(=O)[C@H](C)[C@@H](O[C@H]2C[C@@](C)(OC)[C@@H](O)[C@H](C)O2)[C@H](C)[C@@H](O[C@@H]2O[C@H](C)C[C@H](N(C)C)[C@H]2O)[C@](C)(O)C[C@@H](C)CN[C@H](C)[C@@H](O)[C@]1(C)O [Standard, 11-aza-10-deoxo-10-dihydro erythromycin A, reference compound] | – | 0.5 µg/mL (≈ 0.68 µM) | 0.5 µg/mL (≈ 0.68 µM) | 0.05 µg/mL (≈ 0.068 µM) | 0.5 µg/mL (≈ 0.68 µM) | 0.5 µg/mL (≈ 0.68 µM) | 0.05 µg/mL (≈ 0.068 µM) | 0.05 µg/mL (≈ 0.068 µM) | – | – | – | – | – | – | –
8 | CC[C@H]1OC(=O)[C@H](C)[C@@H](O[C@H]2C[C@@](C)(OC)[C@@H](O)[C@H](C)O2)[C@H](C)[C@@H](O[C@@H]2O[C@H](C)C[C@H](N(C)C)[C@H]2O)[C@](C)(O)C[C@@H](C)CN(C)[C@H](C)[C@@H](O)[C@]1(C)O [Example 1, N-methyl-11-aza-10-deoxo-10-dihydro erythromycin A] | – | 0.5 µg/mL (≈ 0.668 µM) | 0.5 µg/mL (≈ 0.668 µM) | 0.01 µg/mL (≈ 0.0134 µM) | 0.5 µg/mL (≈ 0.668 µM) | 0.1 µg/mL (≈ 0.134 µM) | 0.01 µg/mL (≈ 0.0134 µM) | 0.05 µg/mL (≈ 0.0668 µM) | – | – | – | – | – | – | superior effect on some tested microorganisms
9 | CC[C@H]1OC(=O)[C@H](C)[C@@H](O[C@H]2C[C@@](C)(OC)[C@@H](O)[C@H](C)O2)[C@H](C)[C@@H](O[C@@H]2O[C@H](C)C[C@H](N(C)C)[C@H]2OC(C)=O)[C@](C)(O)C[C@@H](C)CN(C)[C@H](C)[C@H]2OC(=O)O[C@@]21C [Example 8, 2'-acetyl-N-methyl-11-aza-10-deoxo-10-dihydro erythromycin A 13,14-cyclic carbonate] | – | 0.5 µg/mL (≈ 0.612 µM) | 0.1 µg/mL (≈ 0.122 µM) | 0.1 µg/mL (≈ 0.122 µM) | 0.1 µg/mL (≈ 0.122 µM) | 0.1 µg/mL (≈ 0.122 µM) | 0.05 µg/mL (≈ 0.0612 µM) | 0.05 µg/mL (≈ 0.0612 µM) | – | – | – | – | – | – | –
10 | CCC(=O)O[C@H]1[C@H](O[C@@H]2[C@@H](C)[C@H](O[C@H]3C[C@@](C)(OC)[C@@H](O)[C@H](C)O3)[C@@H](C)C(=O)O[C@H](CC)[C@@]3(C)OC(=O)O[C@@H]3[C@@H](C)N(C)C[C@H](C)C[C@@]2(C)O)O[C@H](C)C[C@@H]1N(C)C [Example 10, 2'-propionyl-N-methyl-11-aza-10-deoxo-10-dihydro erythromycin A 13,14-cyclic carbonate] | – | 0.5 µg/mL (≈ 0.602 µM) | 0.5 µg/mL (≈ 0.602 µM) | 0.5 µg/mL (≈ 0.602 µM) | 0.5 µg/mL (≈ 0.602 µM) | 1 µg/mL (≈ 1.2 µM) | 0.1 µg/mL (≈ 0.12 µM) | 0.05 µg/mL (≈ 0.0602 µM) | – | – | – | – | – | – | –
11 | CC[C@H]1OC(=O)[C@H](C)[C@@H](O[C@H]2C[C@@](C)(OC)[C@@H](O)[C@H](C)O2)[C@H](C)[C@@H](O[C@@H]2O[C@H](C)C[C@H](N(C)C)[C@H]2O)[C@](C)(O)C[C@@H](C)CN(C)[C@H](C)[C@H]2OC(=O)O[C@@]21C [Example 7, N-methyl-11-aza-10-deoxo-10-dihydro erythromycin A 13,14-cyclic carbonate] | – | 0.5 µg/mL (≈ 0.645 µM) | 0.1 µg/mL (≈ 0.129 µM) | 0.1 µg/mL (≈ 0.129 µM) | 0.1 µg/mL (≈ 0.129 µM) | 0.1 µg/mL (≈ 0.129 µM) | 0.05 µg/mL (≈ 0.0645 µM) | 0.1 µg/mL (≈ 0.129 µM) | – | – | – | – | – | – | –
12 | CC[C@H]1OC(=O)[C@H](C)[C@@H](O[C@H]2C[C@@](C)(OC)[C@@H](OC(C)=O)[C@H](C)O2)[C@H](C)[C@@H](O[C@@H]2O[C@H](C)C[C@H](N(C)C)[C@H]2OC(C)=O)[C@](C)(O)C[C@@H](C)CN(C)[C@H](C)[C@@H](OC(C)=O)[C@]1(C)O [Example 4, 2',4"-13-triacetyl-N-methyl-11-aza-10-deoxo-10-dihydro erythromycin A] | – | – | – | – | – | – | – | – | – | – | – | – | – | – | did not exhibit any satisfactory activity
13 | CC[C@H]1OC(=O)[C@H](C)[C@@H](O[C@H]2C[C@@](C)(OC)[C@@H](OC(C)=O)[C@H](C)O2)[C@H](C)[C@@H](O[C@@H]2O[C@H](C)C[C@H](N(C)C)[C@H]2OC(C)=O)[C@](C)(O)C[C@@H](C)CN(C)[C@H](C)[C@@H](O)[C@]1(C)O [Example 3, 2',4"-diacetyl-N-methyl-11-aza-10-deoxo-10-dihydro erythromycin A] | – | 2.5 µg/mL (≈ 3 µM) | 0.5 µg/mL (≈ 0.6 µM) | 0.1 µg/mL (≈ 0.12 µM) | 0.5 µg/mL (≈ 0.6 µM) | 2.5 µg/mL (≈ 3 µM) | 0.5 µg/mL (≈ 0.6 µM) | 0.1 µg/mL (≈ 0.12 µM) | – | – | – | – | – | – | –
